What all share (type): functional
One assay concerns Candida tropicalis. Description: Antifungal activity against Candida tropicalis after 24 hrs by serial dilution method.
In the next assay the test system is Cryptococcus neoformans. In words: Antifungal activity against Cryptococcus neoformans after 72 hrs by serial dilution method.
In another assay the test system is Trichophyton rubrum. Description: Antifungal activity against Trichophyton rubrum after 7 days by serial dilution method. Conditions: 168 h.
For a further assay, the system named is Candida albicans. Description: Antifungal activity against Candida albicans after 24 hrs by serial dilution method.
The test system of the next assay is Aspergillus fumigatus. Description: Antifungal activity against Aspergillus fumigatus after 7 days by serial dilution method. To be noted: 168 h.
The subject of a further assay is Pichia kudriavzevii. Description: Antifungal activity against Candida krusei after 24 hrs by serial dilution method.
A further assay concerns Candida parapsilosis. In words: Antifungal activity against Candida parapsilosis after 24 hrs by serial dilution method. Conditions: Lodderomyces parapsilosis.

In brackets after ≈: the same amount, converted by molar mass.

The term MIC80 denotes the lowest concentration that inhibits either 80% of growth or 80% of the strains tested, depending on the study. A high value points to weaker potency.

For `O=[N+]([O-])c1ccc(CON=C2CCN(CC(O)(Cn3cncn3)c3ccc(F)cc3F)CC2)cc1` (racemic), the MIC80 turned out to be 0.004 µg/mL (≈ 0.00822 µM) against Candida tropicalis; 0.016 µg/mL (≈ 0.0329 µM) with Cryptococcus neoformans; 0.0625 µg/mL (≈ 0.128 µM) with Trichophyton rubrum; 0.016 µg/mL (≈ 0.0329 µM) in the assay on Candida albicans; 1 µg/mL (≈ 2.06 µM) in the assay with Aspergillus fumigatus; 0.25 µg/mL (≈ 0.514 µM) in the assay on Pichia kudriavzevii. The compound further had an MIC80 in the assay with Candida parapsilosis of 0.004 µg/mL (≈ 0.00822 µM).

As for `OC(CN1CCC(=NOCc2cccc3ccccc23)CC1)(Cn1cncn1)c1ccc(F)cc1F` (racemic), the MIC80 in the assay with Candida tropicalis was found to be 0.25 µg/mL (≈ 0.509 µM); against Cryptococcus neoformans, 0.0625 µg/mL (≈ 0.127 µM); against Trichophyton rubrum, 0.25 µg/mL (≈ 0.509 µM); in the assay on Candida albicans, 0.0625 µg/mL (≈ 0.127 µM); against Aspergillus fumigatus, 1 µg/mL (≈ 2.03 µM); in the assay with Pichia kudriavzevii, 4 µg/mL (≈ 8.14 µM). Also, the MIC80 in the assay with Candida parapsilosis came out at 0.0625 µg/mL (≈ 0.127 µM).

In the case of `OC(CN1CCC(=NOCc2ccccc2)CC1)(Cn1cncn1)c1ccc(F)cc1F` (racemic), the MIC80 against Candida tropicalis came to 0.001 µg/mL (≈ 0.00227 µM); against Cryptococcus neoformans, 0.016 µg/mL (≈ 0.0362 µM); in the assay on Trichophyton rubrum it was 0.0625 µg/mL (≈ 0.142 µM); in the assay on Candida albicans it was 0.004 µg/mL (≈ 0.00906 µM); against Aspergillus fumigatus, 1 µg/mL (≈ 2.27 µM); in the assay on Pichia kudriavzevii, 0.0625 µg/mL (≈ 0.142 µM). Moreover, the MIC80 in the assay on Candida parapsilosis turned out to be 0.004 µg/mL (≈ 0.00906 µM).

For `OC(CN1CCC(=NOCc2cccc(C(F)(F)F)c2)CC1)(Cn1cncn1)c1ccc(F)cc1F` (racemic), the MIC80 is 64 µg/mL (≈ 126 µM) against Candida tropicalis; 16 µg/mL (≈ 31.4 µM) against Cryptococcus neoformans; 16 µg/mL (≈ 31.4 µM) against Trichophyton rubrum; 16 µg/mL (≈ 31.4 µM) against Candida albicans; 64 µg/mL (≈ 126 µM) with Aspergillus fumigatus; 64 µg/mL (≈ 126 µM) in the assay with Pichia kudriavzevii. For the same compound, the MIC80 in the assay on Candida parapsilosis worked out at 64 µg/mL (≈ 126 µM).

The values above are taken from ChEMBL document CHEMBL1157917, “Structure-based rational design, synthesis and antifungal activity of oxime-containing azole derivatives” (2010).
